Drawing on patent US20230117034A1, “PYRAZOLOTRIAZINES” (Bayer Aktiengesellschaft, priority 2019, published 2023), this text covers DC50 and IC50 for 21 compounds.

Some results are limits rather than exact numbers.

Assay [1] concerns the target T1, CYCLIN K (nuclear staining in CAL-120 cells) (Homo sapiens, UniProt O75909).
T1 construct: endogenous in cells; host or cells: CAL-120 human breast cancer cells (DSMZ ACC 459)
Put plainly: CYCLIN K nuclear protein level: immunofluorescence high content analysis (CAL-120). The following applies: 24 h, 50% reduction of nuclear CCNK staining intensity, median, read-out: CYCLIN K degradation IF, DC50-[mol/l] (median). Type of assay: cell-based. The protocol: 8. CYCLIN K nuclear protein level: immunofluorescence High Content Analysis
CAL-120 human breast cancer cells (DSMZ ACC 459) are seeded in 1536-well microtiter plates (800 cells per well) containing 50 nanoL of compounds in Dose-Response. Control wells received DMSO or Example 4. Plates are then incubated for 24 h at 37° C. in an humidified incubator and fixed with 4% PFA for 10 min. Then immunofluorescence (IF) against CYCLIN K (ThermoFisher Scientific CONK Antibody #PA5-85020, rabbit, 1:200 dilution) is performed using standard IF protocols. Cells are then stained with Hoechst 33342 (Life Technologies, H-1399, 0.1 microg/ml) and imaged on an automated confocal microscopy system (e.g. Perkin Elmer Opera Phenix). Nuclear and cytoplasmic intensity as well as the nuclear/cytoplasmic intensity ratio is determined by automated image analysis using custom generated scripts (MetaXpress). Data is then transferred to Genedata Screener software, normalized to DMSO and control and DC50 values (degrading concentration to achieve 50% reduction of nuclear CCNK staining intensity relative to controls) are reported.

Assay [2] deals with CAL-120, human breast adenocarcinoma cells. In words: Proliferation assay CAL-120 (crystal violet, 4 days). The following applies: Homo sapiens, CAL-120, 96 h, CAL-120 cells, median, read-out: Prolif-CAL-120, IC50-[mol/l] (median). Type of assay: cell-based. The gist of the method: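 Following a 24 h attachment in 10% fetal calf serum medium, cells receive test substance over 0.01-10 µmol/L for 4 days. Dye retained by fixed cells is eluted and read at 595 nm; cell number change is referenced to day-0 and untreated wells.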

A further assay addresses CDK12/CycK (Homo sapiens, UniProt Q9NYV4). Put plainly: CDK12/CycK high ATP kinase assay (TR-FRET, 2 mM ATP). To be noted: 2 mM ATP (high ATP); median; read-out: CDK12/CyclinK, 2 mM ATP (high ATP), IC50-[mol/l] (median). Type of assay: biochemical. The essentials:
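His-tagged human CDK12/CycK (~0.75 nM) pre-incubated 15 min with compound, then 60 min at 22 °C with 2 mM ATP and 1 µM biotinylated peptide (HEPES pH 7.5, 20 mM MgCl2). EDTA stop; phospho-Ser62 antibody/Eu anti-rabbit and streptavidin-XL665 TR-FRET, 665/620 nm ratio normalised to give IC50.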
A general note: In TR-FRET formats the signal depends on donor and acceptor labels being close together.

Chain of CDK12/CycK (Q9NYV4 with tags, fused parts or gaps): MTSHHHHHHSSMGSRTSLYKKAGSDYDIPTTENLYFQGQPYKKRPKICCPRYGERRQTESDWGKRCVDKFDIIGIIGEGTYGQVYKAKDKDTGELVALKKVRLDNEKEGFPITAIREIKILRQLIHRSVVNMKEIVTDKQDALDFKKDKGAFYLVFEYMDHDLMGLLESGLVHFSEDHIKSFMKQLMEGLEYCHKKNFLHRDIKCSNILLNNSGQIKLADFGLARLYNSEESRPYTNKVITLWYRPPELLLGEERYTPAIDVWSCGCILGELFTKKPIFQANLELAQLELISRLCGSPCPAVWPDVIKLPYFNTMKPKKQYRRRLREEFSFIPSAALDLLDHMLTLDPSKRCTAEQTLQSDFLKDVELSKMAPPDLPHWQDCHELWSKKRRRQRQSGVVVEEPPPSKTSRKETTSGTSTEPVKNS
Chain of CDK12/CycK (O75909 1-300 partner limits assumed): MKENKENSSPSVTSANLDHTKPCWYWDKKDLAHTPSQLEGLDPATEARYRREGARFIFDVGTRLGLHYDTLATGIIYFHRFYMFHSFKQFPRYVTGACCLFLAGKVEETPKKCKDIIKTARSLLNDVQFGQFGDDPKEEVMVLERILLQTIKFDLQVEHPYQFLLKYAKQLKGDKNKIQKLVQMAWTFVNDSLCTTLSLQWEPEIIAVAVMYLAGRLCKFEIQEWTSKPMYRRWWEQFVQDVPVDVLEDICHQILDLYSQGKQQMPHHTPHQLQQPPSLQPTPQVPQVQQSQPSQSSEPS
T1 sequence (O75909 whole entry): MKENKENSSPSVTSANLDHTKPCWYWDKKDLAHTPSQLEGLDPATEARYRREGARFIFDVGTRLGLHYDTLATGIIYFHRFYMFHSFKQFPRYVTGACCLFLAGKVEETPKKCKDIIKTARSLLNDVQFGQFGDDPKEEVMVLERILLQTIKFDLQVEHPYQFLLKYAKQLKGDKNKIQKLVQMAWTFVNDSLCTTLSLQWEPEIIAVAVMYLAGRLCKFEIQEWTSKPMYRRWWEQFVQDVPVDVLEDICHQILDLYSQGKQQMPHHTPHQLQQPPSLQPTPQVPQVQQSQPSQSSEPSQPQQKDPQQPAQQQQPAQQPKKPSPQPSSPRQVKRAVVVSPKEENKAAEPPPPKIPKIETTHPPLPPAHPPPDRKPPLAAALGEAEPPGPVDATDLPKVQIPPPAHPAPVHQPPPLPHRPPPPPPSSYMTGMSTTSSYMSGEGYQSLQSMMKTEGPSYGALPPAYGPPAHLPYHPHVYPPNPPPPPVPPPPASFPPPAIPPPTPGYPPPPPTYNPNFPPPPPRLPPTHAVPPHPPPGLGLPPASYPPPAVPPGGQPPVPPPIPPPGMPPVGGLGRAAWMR
T1 sequence (Q9NYV4 whole entry partner): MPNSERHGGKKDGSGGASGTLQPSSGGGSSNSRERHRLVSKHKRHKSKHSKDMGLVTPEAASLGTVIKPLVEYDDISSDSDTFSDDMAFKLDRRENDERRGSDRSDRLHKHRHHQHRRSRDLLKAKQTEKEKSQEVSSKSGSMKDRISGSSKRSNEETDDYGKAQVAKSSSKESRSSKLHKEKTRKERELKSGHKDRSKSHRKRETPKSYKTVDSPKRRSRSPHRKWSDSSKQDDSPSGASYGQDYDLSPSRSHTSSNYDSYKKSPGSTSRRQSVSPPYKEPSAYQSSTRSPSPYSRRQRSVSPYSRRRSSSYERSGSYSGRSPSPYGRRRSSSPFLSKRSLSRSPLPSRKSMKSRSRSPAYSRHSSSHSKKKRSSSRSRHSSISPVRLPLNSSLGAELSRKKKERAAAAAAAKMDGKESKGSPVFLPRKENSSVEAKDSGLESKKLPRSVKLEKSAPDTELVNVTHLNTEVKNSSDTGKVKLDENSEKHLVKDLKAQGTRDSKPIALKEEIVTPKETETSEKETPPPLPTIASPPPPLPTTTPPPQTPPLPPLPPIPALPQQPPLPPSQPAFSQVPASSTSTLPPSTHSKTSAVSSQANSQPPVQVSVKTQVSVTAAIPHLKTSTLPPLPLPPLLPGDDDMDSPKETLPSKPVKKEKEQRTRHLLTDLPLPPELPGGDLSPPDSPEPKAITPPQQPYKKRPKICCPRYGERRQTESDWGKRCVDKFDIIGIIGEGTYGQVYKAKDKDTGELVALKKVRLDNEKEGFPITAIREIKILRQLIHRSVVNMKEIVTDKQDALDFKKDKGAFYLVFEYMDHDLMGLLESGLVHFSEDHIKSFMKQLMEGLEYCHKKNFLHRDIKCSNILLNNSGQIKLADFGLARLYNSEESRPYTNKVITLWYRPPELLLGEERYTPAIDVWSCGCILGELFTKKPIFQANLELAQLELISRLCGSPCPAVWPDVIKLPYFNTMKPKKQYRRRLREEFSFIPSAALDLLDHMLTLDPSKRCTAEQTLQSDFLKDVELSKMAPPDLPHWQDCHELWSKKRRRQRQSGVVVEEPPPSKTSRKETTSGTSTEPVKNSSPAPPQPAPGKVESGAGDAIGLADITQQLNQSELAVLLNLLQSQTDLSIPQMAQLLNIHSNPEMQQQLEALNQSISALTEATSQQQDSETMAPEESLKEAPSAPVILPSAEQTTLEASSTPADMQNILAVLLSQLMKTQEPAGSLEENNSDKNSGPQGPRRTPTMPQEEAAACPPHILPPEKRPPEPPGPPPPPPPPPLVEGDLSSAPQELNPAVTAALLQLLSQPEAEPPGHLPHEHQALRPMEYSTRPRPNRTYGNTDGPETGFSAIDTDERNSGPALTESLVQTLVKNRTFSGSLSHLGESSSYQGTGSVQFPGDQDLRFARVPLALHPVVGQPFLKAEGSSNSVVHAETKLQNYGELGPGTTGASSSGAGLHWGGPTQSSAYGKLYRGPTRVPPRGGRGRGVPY

As to `Brc1cnn2c(NCc3nc4ccccc4[nH]3)nc(N3CCOCC3)nc12` [Example 4, N-[(1H-benzimidazol-2-yl)methyl]-8-bromo-2-(morpholin-4-yl)pyrazolo[1,5-a][1,3,5]triazin-4-amine], the DC50 in assay [1] came out at 2.46 nM. Moreover, the IC50 in assay [2] was found to be 12 nM; at CDK12/CycK it was 1740 nM.

`COc1ccc2[nH]c(CNc3nc(N4CCOCC4)nc4c(Br)cnn34)nc2c1` [Example 160, 8-bromo-N-[(5-methoxy-1H-benzimidazol-2-yl)methyl]-2-(morpholin-4-yl)pyrazolo[1,5-a][1,3,5]triazin-4-amine]: the DC50 in assay [1] amounted to 0.743 nM. Moreover, the IC50 in assay [2] is 6.5 nM; on CDK12/CycK it was 1240 nM.

For `Fc1ccc2[nH]c(CNc3nc(N4CCOCC4)nc4c(Br)cnn34)nc2c1` [Example 101, 8-bromo-N-[(5-fluoro-1H-benzimidazol-2-yl)methyl]-2-(morpholin-4-yl)pyrazolo[1,5-a][1,3,5]triazin-4-amine], the DC50 in assay [1] is 0.892 nM. For the same compound, the IC50 in assay [2] turned out to be 4.1 nM; on CDK12/CycK it was 2250 nM.

In the case of `CN1CCN(c2nc(NCc3nc4c(F)c(F)ccc4[nH]3)n3ncc(Br)c3n2)CC1` [Example 133, 8-bromo-N-[(4,5-difluoro-1H-benzimidazol-2-yl)methyl]-2-(4-methylpiperazin-1-yl)pyrazolo[1,5-a][1,3,5]triazin-4-amine], the DC50 in assay [1] came to 0.0633 nM. Besides, the IC50 was 4.41 nM in assay [2] and 7010 nM on CDK12/CycK.

For `Clc1ccccc1-c1cnc(CNc2nc(N3CCOCC3)nc3c(Br)cnn23)[nH]1` [Example 96, 8-bromo-N-{[5-(2-chlorophenyl)-1H-imidazol-2-yl]methyl}-2-(morpholin-4-yl)pyrazolo[1,5-a][1,3,5]triazin-4-amine], the DC50 in assay [1] was 10.7 nM. In addition, the IC50 was 30.1 nM in assay [2] and 4650 nM at CDK12/CycK.

Take `C[C@H]1CN(c2nc(NCc3nc4ccccc4[nH]3)n3ncc(Br)c3n2)CCN1C` [Example 132, N-[(1H-benzimidazol-2-yl)methyl]-8-bromo-2-[(3S)-3,4-dimethylpiperazin-1-yl]pyrazolo[1,5-a][1,3,5]triazin-4-amine]: in assay [1], the DC50 worked out at 2.22 nM. Also, the IC50 in assay [2] was 43.4 nM; at CDK12/CycK it was over 19200 nM.

Take `Clc1ccc2[nH]c(CNc3nc(N4CCOCC4)nc4c(Br)cnn34)nc2c1` [Example 162, 8-bromo-N-[(5-chloro-1H-benzimidazol-2-yl)methyl]-2-(morpholin-4-yl)pyrazolo[1,5-a][1,3,5]triazin-4-amine]: the DC50 in assay [1] was determined as 0.112 nM. Further, the IC50 was 1.55 nM in assay [2] and 1020 nM at CDK12/CycK.

Take `Cc1cccc2[nH]c(CNc3nc(N4CCN(C)CC4)nc4c(Br)cnn34)nc12` [Example 151, 8-bromo-N-[(4-methyl-1H-benzimidazol-2-yl)methyl]-2-(4-methylpiperazin-1-yl)pyrazolo[1,5-a][1,3,5]triazin-4-amine]: in assay [1], the DC50 is 2.45 nM. Besides, the IC50 in assay [2] came to 24.7 nM; on CDK12/CycK, 4240 nM.

For the compound `Fc1ccc(-c2cnn3c(NCc4nc5ccccc5[nH]4)nc(N4CCOCC4)nc23)cc1` [Example 106, N-[(1H-benzimidazol-2-yl)methyl]-8-(4-fluorophenyl)-2-(morpholin-4-yl)pyrazolo[1,5-a][1,3,5]triazin-4-amine], the DC50 in assay [1] was 2.45 nM. The IC50 in assay [2] was 47 nM; on CDK12/CycK it was over 9990 nM.

Turning to `Brc1cnn2c(NCc3nnc(-c4ccccc4)[nH]3)nc(N3CCNCC3)nc12.O=CO` [Example 119, 8-bromo-N-[(5-phenyl-4H-1,2,4-triazol-3-yl)methyl]-2-piperazin-1-yl-pyrazolo[1,5-a][1,3,5]triazin-4-amine formate], the DC50 in assay [1] came to 3 nM. Besides, the IC50 in assay [2] stood at 7.75 nM; on CDK12/CycK, 6620 nM.

For `C[C@@H]1CN(c2nc(NCc3nc4ccccc4[nH]3)n3ncc(Br)c3n2)CCN1C` [Example 135, N-[(1H-benzimidazol-2-yl)methyl]-8-bromo-2-[(3R)-3,4-dimethylpiperazin-1-yl]pyrazolo[1,5-a][1,3,5]triazin-4-amine], in assay [1], the DC50 was found to be 0.554 nM. The IC50 is 41.7 nM in assay [2] and 14500 nM on CDK12/CycK.

Regarding `Brc1cnn2c(NCc3nc4ccccc4[nH]3)nc(N3C[C@@H]4C[C@H]3CO4)nc12` [Example 103, N-[(1H-benzimidazol-2-yl)methyl]-8-bromo-2-[(1S,4S)-2-oxa-5-azabicyclo[2.2.1]heptan-5-yl]pyrazolo[1,5-a][1,3,5]triazin-4-amine], the DC50 in assay [1] worked out at 0.765 nM. Further, the IC50 was 46.5 nM in assay [2] and 10300 nM at CDK12/CycK.

For the compound `Brc1cnn2c(NCc3nc4ccccc4[nH]3)nc(N3C[C@H]4C[C@@H]3CO4)nc12` [Example 102, N-[(1H-benzimidazol-2-yl)methyl]-8-bromo-2-[(1R,4R)-2-oxa-5-azabicyclo[2.2.1]heptan-5-yl]pyrazolo[1,5-a][1,3,5]triazin-4-amine], in assay [1], the DC50 is 0.517 nM. Further, the IC50 in assay [2] worked out at 27 nM; at CDK12/CycK it was 6920 nM.

With `CN1CCN(c2nc(NCc3nc4c(F)c(F)ccc4[nH]3)n3ncc(C4CC4)c3n2)CC1` [Example 159, 8-cyclopropyl-N-[(4,5-difluoro-1H-benzimidazol-2-yl)methyl]-2-(4-methylpiperazin-1-yl)pyrazolo[1,5-a][1,3,5]triazin-4-amine], the DC50 in assay [1] was 0.0663 nM. The IC50 in assay [2] turned out to be 1.73 nM; on CDK12/CycK, 9620 nM.

In the case of `Cc1ccc(-c2nnc(CNc3nc(N4CCOCC4)nc4c(Br)cnn34)[nH]2)cc1F` [Example 98, 8-bromo-N-{[5-(3-fluoro-4-methylphenyl)-4H-1,2,4-triazol-3-yl]methyl}-2-(morpholin-4-yl)pyrazolo[1,5-a][1,3,5]triazin-4-amine], the DC50 in assay [1] is 28.1 nM. For the same compound, the IC50 worked out at 116 nM in assay [2] and 1080 nM on CDK12/CycK.

Take `Brc1cnn2c(NCc3nnc(-c4ccccc4)[nH]3)nc(N3C[C@H]4C[C@@H]3CO4)nc12` [Example 118, 8-bromo-2-[(1R,4R)-2-oxa-5-azabicyclo[2.2.1]heptan-5-yl]-N-[(5-phenyl-4H-1,2,4-triazol-3-yl)methyl]pyrazolo[1,5-a][1,3,5]triazin-4-amine]: in assay [1], the DC50 worked out at 2.98 nM. In addition, the IC50 in assay [2] turned out to be 29.7 nM; on CDK12/CycK, 5700 nM.

Turning to `C[C@H]1CN(c2nc(NCc3nnc(-c4cccc(F)c4)[nH]3)n3ncc(Br)c3n2)CCN1C` [Example 154, 8-bromo-2-[(3S)-3,4-dimethylpiperazin-1-yl]-N-{[5-(3-fluorophenyl)-4H-1,2,4-triazol-3-yl]methyl}pyrazolo[1,5-a][1,3,5]triazin-4-amine], the DC50 in assay [1] stood at 0.713 nM. Also, the IC50 in assay [2] is 7.69 nM; at CDK12/CycK it was 7170 nM.

On to `CN1CCN(c2nc(NCc3nnc(-c4cccc(F)c4)[nH]3)n3ncc(Br)c3n2)CC1` [Example 136, 8-bromo-N-{[5-(3-fluorophenyl)-4H-1,2,4-triazol-3-yl]methyl}-2-(4-methylpiperazin-1-yl)pyrazolo[1,5-a][1,3,5]triazin-4-amine], for which the DC50 in assay [1] is 0.464 nM. Moreover, the IC50 was found to be 17.1 nM in assay [2] and 4120 nM at CDK12/CycK.

For the compound `Fc1cccc(-c2nnc(CNc3nc(N4C[C@H]5C[C@@H]4CO5)nc4c(Br)cnn34)[nH]2)c1` [Example 153, 8-bromo-N-{[5-(3-fluorophenyl)-4H-1,2,4-triazol-3-yl]methyl}-2-[(1R,4R)-2-oxa-5-azabicyclo[2.2.1]heptan-5-yl]pyrazolo[1,5-a][1,3,5]triazin-4-amine], in assay [1], the DC50 is 1.42 nM. For the same compound, the IC50 in assay [2] came to 5.78 nM; at CDK12/CycK it was 2950 nM.

For the compound `Cc1ccc2[nH]c(CNc3nc(N4CCN(C)CC4)nc4c(Br)cnn34)nc2c1` [Example 158, 8-bromo-N-[(5-methyl-1H-benzimidazol-2-yl)methyl]-2-(4-methylpiperazin-1-yl)pyrazolo[1,5-a][1,3,5]triazin-4-amine], in assay [1], the DC50 was 0.367 nM. The IC50 in assay [2] was 1.17 nM; on CDK12/CycK it was 4460 nM.

Regarding `CC1(C)CN(c2nc(NCc3nc4ccccc4[nH]3)n3ncc(C4CC4)c3n2)CCO1` [Example 123, N-[(1H-benzimidazol-2-yl)methyl]-8-cyclopropyl-2-(2,2-dimethylmorpholin-4-yl)pyrazolo[1,5-a][1,3,5]triazin-4-amine], in assay [1], the DC50 worked out at 5.03 nM. Further, the IC50 was found to be 83.2 nM in assay [2] and 12600 nM on CDK12/CycK.
